# Values joined by “and” are separate entries in the source; they are usually repeats but may differ in a detail not shown here. Identical values can stand only once.
# What was measured:
# RAW 264.7 macrophages = test: Cell viability assay (MTS); format: cell-based; details: for Viability: 24 hours
# Description: CellTiter 96 AQueous one Solution Cell Proliferation Assay (MTS) (Promega, G3582) was used according to the manufacturer’s instructions to analyze cytotoxicity of SerBut and NaBut at various concentrations (0.15–12 mM) in RAW 264.7 macrophages. Viability values were normalized to untreated cells (100%) and Triton X-100–treated cells (0%). Since absorbance is directly proportional to the number of living cells in culture, values greater than 100% indicate cell growth compared with controls.
# ApoE^–/– mice on an HFD [1] = test: Oil Red O staining of aortic root plaque; format: in vivo, mouse; parameters: ORO Quantification ORO+ Heart: unit not given here
# Description: For 6 weeks, mice were freely administered water, water containing 150 mM SerBut, or water containing an equimolar amount of NaBut. SerBut water was pH adjusted using 10 M NaOH to a final pH of 7.4. […] In concert, mice were fed an HFD with 42% from fat and 0.2% total cholesterol (Envigo, TD-88137) ad libitum. After 6 weeks, mice were euthanized. The lMLNs, ILNs, spleen, heart, and aorta were harvested and processed for flow cytometry analysis ([67]). The liver was harvested and part was homogenized in tissue protein extraction reagent buffer (Invitrogen, 78510) supplemented with protease inhibitor mini tablets (Thermo Fisher Scientific, PIA32955) for Western blotting and qPCR. The remaining liver was fixed with 4% paraformaldehyde and embedded in paraffin for histological analysis.
# Hearts were fixed in 4% paraformaldehyde for 24 hours and cryopreserved with sucrose (15% sucrose for 24 hours, 30% sucrose for 24 hours, 1:1 30% sucrose and OCT) before being embedded in OCT (Thermo Fisher Scientific). Frozen embedded samples were sectioned at 8 μm until all 3 leaflets were visible. Aortic root sections were brought to room temperature and rehydrated with PBS. Staining solution was freshly prepared by mixing 3:2 Oil Red O (0.5% in isopropanol, Sigma Aldrich) to water. The solution was filtered through a 0.22 μm PES syringe filter (Millipore) and pipetted onto sections. After 15 minutes in a sealed dark chamber, sections were washed 3 times with water and imaged. Images were analyzed using QuPath (v0.5.0) (https://qupath.github.io). Each leaflet was circled broadly to include the plaque and then subsequently trained on the QuPath pixel classifier using the software’s artificial neural network. Training images were then tested and validated to identify the plaques to calculate their area and exclude non-plaque structures in the image. Plaque sizes were subsequently averaged and used to determine percentage Oil Red O–positive plaque area in the leaflet.
# ApoE^–/– mice on an HFD [2] = test: Immunofluorescent staining of the aortic root (CD68, iNOS, DAPI); format: in vivo, mouse; parameters: Immunoflourescence Quantification #Cells/Area / Immunoflourescence Quantification #iNOS+/Area: unit not given beside the values
# Description: SerBut water was pH adjusted using 10 M NaOH to a final pH of 7.4. […] After 6 weeks, mice were euthanized. […] The liver was harvested and part was homogenized in tissue protein extraction reagent buffer (Invitrogen, 78510) supplemented with protease inhibitor mini tablets (Thermo Fisher Scientific, PIA32955) for Western blotting and qPCR. […] Aortic root sections were brought to room temperature and rehydrated with PBS and permeabilized with 10% dimethyl sulfoxide (DMSO). […] Sections were washed again in PBS with 0.1% Tween 20 and then PBS and mounted with ProLong Gold Antifade Mountant with DAPI (Invitrogen). Slides were imaged with a DMI8 inverted fluorescence microscope (Leica Microsystems) and analyzed with QuPath (v0.5.0).
# ApoE^–/– mice on an HFD [3] = test: Flow cytometry of the aorta; format: in vivo, mouse; parameters: Aorta Flow CD11b+F480+ / Aorta Flow CD11b+Ly6Chi: unit not given here
# Description: SerBut water was pH adjusted using 10 M NaOH to a final pH of 7.4. […] After 6 weeks, mice were euthanized. […] The liver was harvested and part was homogenized in tissue protein extraction reagent buffer (Invitrogen, 78510) supplemented with protease inhibitor mini tablets (Thermo Fisher Scientific, PIA32955) for Western blotting and qPCR. […] The heart with the ascending and descending aorta to the diaphragm was harvested. The perivascular adipose tissue was carefully removed by microdissection while keeping the adventitia intact. […] After 45 minutes of digestion at 37°C with orbital shaking, aortas were passed through a 70 μm cell strainer, rinsed, pelleted, and plated into a U-bottom 96-well microplate for staining. […] Cells were washed in PBS supplemented with 2% FBS (FACS buffer) and stained for 30 minutes on ice with surface antibodies at a 1:200 dilution in a 1:1 mixture of FACS buffer and Brilliant Stain Buffer (BD Biosciences). Cells were washed with FACS buffer and PBS and fixed with 2% paraformaldehyde on ice for 20 minutes. Cells were washed twice with PBS and resuspended in FACS buffer. Precision count beads (BioLegend) were used to determine absolute cell counts. In this study, antibodies used included those against CD16/CD32 (BioLegend, clone 93, catalog 101302), CCR2 (PE; […] BD Biosciences, clone HL3, catalog 558079, BD Biosciences), […] (APC; […] BD Biosciences, clone 30-F11, catalog 564225), F4/80 (BUV496; BD Biosciences, clone T45-2342, catalog 750644), […].5; BioLegend, clone M5/114.15.2, catalog 107626), Ly-6C (APC-Cy7; […]
# [4] = aortic root, individual samples
smiles,measurement,setting,value
"CCCC(=O)OC[C@H](N)C(=O)O [SerBut, O-butyryl-L-serine]",Viability,"RAW 264.7 macrophages; 0.15 mM, normalized to untreated (100%) and Triton X-100 (0%)",125.153% and 106.544% and 100.92%
same,Viability,RAW 264.7 macrophages; 0.44 mM,107.157% and 122.597% and 96.9325%
same,Viability,RAW 264.7 macrophages; 1.33 mM,115.337% and 91.7178% and 91.1043%
same,Viability,RAW 264.7 macrophages; 4 mM,117.28% and 100.204% and 101.431%
same,Viability,RAW 264.7 macrophages; 12 mM,121.575% and 99.0798% and 102.249%
same,cytotoxicity,RAW 264.7 macrophages; even at 12 mM,no cytotoxicity
same,Oil Red O–stained plaque area in the aortic root,"ApoE^–/– mice on an HFD [1]; 6 weeks, 150 mM in drinking water, HFD, compared with both control and NaBut-treated groups",significantly less
same,ORO Quantification ORO+ Heart,"ApoE^–/– mice on an HFD [1]; individual mice, experiments 1 and 2",21.0027 and 29.8005 and 22.5256 and 19.8678 and 31.4493 and 14.4105 and 13.3736 and 26.8175 and 18.8593 and 30.307 and 36.2089 and 15.3228 and 16.4207 and 38.8939 and 24.9469 and 30.9724 and 19.1725
same,total numbers of CD68^+ macrophages in plaque,"ApoE^–/– mice on an HFD [2]; 6 weeks, compared to NaBut-treated groups",reduced
same,Immunoflourescence Quantification #CD68,ApoE^–/– mice on an HFD [2]; [4],253 and 777 and 160 and 609 and 328 and 484 and 543 and 320 and 469 and 759 and 789 and 546 and 570 and 595 and 155 and 500
same,Immunoflourescence Quantification #Cells,ApoE^–/– mice on an HFD [2]; [4],361 and 838 and 219 and 933 and 390 and 980 and 918 and 425 and 532 and 1028 and 894 and 662 and 629 and 763 and 225 and 709
same,Immunoflourescence Quantification #Cells/Area,ApoE^–/– mice on an HFD [2]; [4],0.003013 and 0.004253 and 0.004189 and 0.003573 and 0.00395 and 0.004233 and 0.003714 and 0.004358 and 0.004407 and 0.003725 and 0.004412 and 0.003975 and 0.003527 and 0.00449 and 0.003521 and 0.004264
same,Immunoflourescence Quantification #iNOS+,ApoE^–/– mice on an HFD [2]; [4],313 and 90 and 377 and 151 and 158 and 199 and 404 and 180 and 226 and 262 and 184 and 96 and 292
same,Immunoflourescence Quantification #iNOS+/Area,ApoE^–/– mice on an HFD [2]; [4],0.001588 and 0.001722 and 0.001444 and 0.001529 and 0.00162 and 0.001649 and 0.001464 and 0.0008883 and 0.001357 and 0.001469 and 0.001083 and 0.001502 and 0.001756
same,Immunoflourescence Quantification CD68+/Area,ApoE^–/– mice on an HFD [2]; [4],0.002112 and 0.003943 and 0.003061 and 0.002332 and 0.003322 and 0.00209 and 0.002197 and 0.003281 and 0.003885 and 0.00275 and 0.003894 and 0.003278 and 0.003196 and 0.003502 and 0.002425 and 0.003007
same,Immunoflourescence Quantification CD68+iNOS+,ApoE^–/– mice on an HFD [2]; [4],308 and 87 and 302 and 146 and 132 and 181 and 347 and 153 and 200 and 252 and 157 and 71 and 253
same,Immunoflourescence Quantification CD68+iNOS+/Area,ApoE^–/– mice on an HFD [2]; [4],0.001563 and 0.001664 and 0.001157 and 0.001479 and 0.001354 and 0.001499 and 0.001257 and 0.0007551 and 0.001201 and 0.001413 and 0.000924 and 0.001111 and 0.001521
same,CD11b^+Ly6C^hi monocytes and CD4^+ T cells in the aorta,"ApoE^–/– mice on an HFD [3]; 6 weeks, compared to water-treated controls",significantly reduced
same,"CD45^+ total leukocytes, CD11b^+ monocytes and CCR2^+CD11b^+ monocytes in the aorta","ApoE^–/– mice on an HFD [3]; 6 weeks, compared with control groups",significantly reduced
same,"CD11c^+MHCII^hi dendritic cells, CD11b^+F480^+ macrophages and CD19^+ B cells in the aorta","ApoE^–/– mice on an HFD [3]; 6 weeks, compared with water controls",significantly reduced
same,Aorta Flow B cell Count,ApoE^–/– mice on an HFD [3]; individual mice,84.4967 and 264.868 and 232.342 and 96.7663 and 273.748 and 383.747 and 234.355 and 234.323 and 206.881
same,Aorta Flow CD11b+F480+,ApoE^–/– mice on an HFD [3]; individual mice,2.449 and 2.499 and 9.294 and 20.8231 and 9.359 and 5.0163 and 5.067 and 13.3899 and 12.3679
same,Aorta Flow CD11b+Ly6Chi,ApoE^–/– mice on an HFD [3]; individual mice,17.5571 and 39.2703 and 12.2741 and 5.622 and 12.2459 and 19.99 and 12.7788 and 6.124 and 10.5288
same,Aorta Flow T Cell Count,ApoE^–/– mice on an HFD [3]; individual mice,194.71 and 307.346 and 249.768 and 304.998 and 251.521 and 313.519 and 377.502 and 212.006 and 174.275
same,Aorta Flow CD11b+ Count,"ApoE^–/– mice on an HFD [3]; individual mice, experiment 2",156.172 and 152.184 and 222.93 and 139.214 and 215.701 and 328.097 and 166.257 and 155.161 and 99.1918
same,Aorta Flow CD11b+CCR2+,"ApoE^–/– mice on an HFD [3]; individual mice, experiment 2",32.4838 and 20.9108 and 28.1725 and 25.737 and 41.3845 and 93.7421 and 32.3588 and 29.2332 and 22.0426
same,Aorta Flow CD45 Count,"ApoE^–/– mice on an HFD [3]; individual mice, experiment 2",1030.73 and 928.206 and 1219.99 and 1078.62 and 1098.57 and 1777.3 and 1018.75 and 756.69 and 848.641
same,Aorta Flow CD11c+MHCIIhi,"ApoE^–/– mice on an HFD [3]; individual mice, cell count",16.2419 and 24.3959 and 22.048 and 17.548 and 21.3193 and 22.8021 and 17.8532 and 22.4871 and 13.4705

# Source: PMC12333940, “A prometabolite strategy inhibits cardiometabolic disease in an ApoE^–/– murine model of atherosclerosis” (JCI Insight, 2025)
